4 compounds from ChEMBL document CHEMBL1201862, “PubChem BioAssay data set” (2004) can be followed below.

Each structure is given as a SMILES string. The source made the active and inactive calls.

A short description of test [1]: mitochondrial function rescue without frataxin homolog – Friedreich's ataxia, plus single-dose screen, dose response (AID 1465).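 Note: yeast depleted of Yfh1p frataxin homolog grown on glycerol needing respiration; WST-1 tetrazolium dye reduction as measure of cellular dehydrogenase metabolic activity.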 It counts as functional.
Test [2] has as its target T1, Bcl-2-related protein A1 (Mus musculus, UniProt Q07440).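 Note: confirmatory dose–response counterscreen on Bfl-1, used to check hits from a UBC13 polyubiquitin inhibitor campaign.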
T1 sequence (Q07440 whole entry): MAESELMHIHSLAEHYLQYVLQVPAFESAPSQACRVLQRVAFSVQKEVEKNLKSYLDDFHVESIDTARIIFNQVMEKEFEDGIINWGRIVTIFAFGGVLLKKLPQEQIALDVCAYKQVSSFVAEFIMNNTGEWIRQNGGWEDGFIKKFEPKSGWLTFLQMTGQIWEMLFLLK
Format: functional.

Test [3] has as its target T2, Ubiquitin-conjugating enzyme E2 N (Homo sapiens, UniProt P61088).
T2 sequence (P61088 whole entry): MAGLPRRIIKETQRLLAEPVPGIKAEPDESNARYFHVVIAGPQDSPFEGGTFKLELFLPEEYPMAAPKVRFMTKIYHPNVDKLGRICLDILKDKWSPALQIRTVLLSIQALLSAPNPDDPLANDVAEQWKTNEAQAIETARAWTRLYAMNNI
Format: functional.

In test [4] the target is T2, Ubiquitin-conjugating enzyme E2 N. Format: functional. This is another data set of the same source.
The target in test [5] is T3, Bcl-2-like protein 10 (Homo sapiens, UniProt Q9HD36).
T3 sequence (Q9HD36 whole entry): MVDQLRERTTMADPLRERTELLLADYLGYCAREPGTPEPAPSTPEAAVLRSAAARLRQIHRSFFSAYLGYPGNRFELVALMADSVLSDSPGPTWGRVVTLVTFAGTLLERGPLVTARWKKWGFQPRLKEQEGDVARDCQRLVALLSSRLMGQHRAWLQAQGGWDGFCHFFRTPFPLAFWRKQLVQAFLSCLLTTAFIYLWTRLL
The test can be described thus: Concentration-response of Bcl-B inhibitors by biochemical FP with TR3 (AID 1243). Format: functional.

A short description of test [6]: A cytotoxicity screen of small molecule inhibitors of the PhoP region in Salmonella typhi identified in the primary screen. [Related pubchem assays: 1850, 1864, 1985 ]. Format: functional.
The nature of test [7]: M. tuberculosis H37Rv growth inhibitors, H37Rv strain (AID 1626). Format: functional.
Test [8] in a line: NIH-3T3 fibroblast cytotoxicity, dose response, cytotoxicity control, cell-based, fluorescence, Alamar Blue, secondary assay (AID 2327).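 Note: NIH-3T3 mouse fibroblasts cultured with fluconazole at 8 µg/mL.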 It counts as functional.
Test [9] is described as follows: fluconazole-exposed Candida albicans growth modulators – fluorescence, retest, confirmation (AID 2467). It counts as functional, cell-based.
In test [10] the target is Induced myeloid leukemia cell differentiation protein Mcl-1 (Homo sapiens, UniProt Q07820). The test can be described thus: blockers of MCL1 binding to BIM peptide – biochemical, fluorescence polarization, BIM-BH3 peptide, 1536-well, dose response (AID 2217).
Chain of Induced myeloid leukemia cell differentiation protein Mcl-1 (Q07820 whole entry): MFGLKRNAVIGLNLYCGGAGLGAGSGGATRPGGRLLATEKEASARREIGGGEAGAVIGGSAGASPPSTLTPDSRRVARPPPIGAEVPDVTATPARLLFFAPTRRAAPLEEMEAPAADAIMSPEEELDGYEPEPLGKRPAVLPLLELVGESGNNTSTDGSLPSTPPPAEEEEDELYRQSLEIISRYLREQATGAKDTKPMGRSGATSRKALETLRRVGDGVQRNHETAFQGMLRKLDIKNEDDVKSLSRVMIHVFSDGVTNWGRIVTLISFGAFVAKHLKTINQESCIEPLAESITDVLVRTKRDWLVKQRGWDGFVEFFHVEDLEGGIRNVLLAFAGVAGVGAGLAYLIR
For test [11], the target named is Bcl-2-like protein 1 (Homo sapiens, UniProt Q07817). The test can be described thus: blockers of BCLXL peptide binding – biochemical, fluorescence polarization, 1536-well, selectivity assay for MCL1 inhibitor project, dose response (AID 2218). A general note: Fluorescence polarisation rises when a labelled molecule tumbles more slowly, as on binding a larger partner.
Chain of Bcl-2-like protein 1 (Q07817 whole entry): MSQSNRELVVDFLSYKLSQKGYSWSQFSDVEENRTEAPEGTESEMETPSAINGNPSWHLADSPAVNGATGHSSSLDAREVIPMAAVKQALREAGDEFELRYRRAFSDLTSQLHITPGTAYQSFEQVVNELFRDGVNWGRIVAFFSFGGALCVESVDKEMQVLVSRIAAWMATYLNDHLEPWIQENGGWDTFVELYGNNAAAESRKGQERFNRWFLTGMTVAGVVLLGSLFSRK

For test [12], the target named is T4, Hexokinase HKDC1 (Homo sapiens, UniProt Q2TB90).
T4 sequence (Q2TB90 whole entry): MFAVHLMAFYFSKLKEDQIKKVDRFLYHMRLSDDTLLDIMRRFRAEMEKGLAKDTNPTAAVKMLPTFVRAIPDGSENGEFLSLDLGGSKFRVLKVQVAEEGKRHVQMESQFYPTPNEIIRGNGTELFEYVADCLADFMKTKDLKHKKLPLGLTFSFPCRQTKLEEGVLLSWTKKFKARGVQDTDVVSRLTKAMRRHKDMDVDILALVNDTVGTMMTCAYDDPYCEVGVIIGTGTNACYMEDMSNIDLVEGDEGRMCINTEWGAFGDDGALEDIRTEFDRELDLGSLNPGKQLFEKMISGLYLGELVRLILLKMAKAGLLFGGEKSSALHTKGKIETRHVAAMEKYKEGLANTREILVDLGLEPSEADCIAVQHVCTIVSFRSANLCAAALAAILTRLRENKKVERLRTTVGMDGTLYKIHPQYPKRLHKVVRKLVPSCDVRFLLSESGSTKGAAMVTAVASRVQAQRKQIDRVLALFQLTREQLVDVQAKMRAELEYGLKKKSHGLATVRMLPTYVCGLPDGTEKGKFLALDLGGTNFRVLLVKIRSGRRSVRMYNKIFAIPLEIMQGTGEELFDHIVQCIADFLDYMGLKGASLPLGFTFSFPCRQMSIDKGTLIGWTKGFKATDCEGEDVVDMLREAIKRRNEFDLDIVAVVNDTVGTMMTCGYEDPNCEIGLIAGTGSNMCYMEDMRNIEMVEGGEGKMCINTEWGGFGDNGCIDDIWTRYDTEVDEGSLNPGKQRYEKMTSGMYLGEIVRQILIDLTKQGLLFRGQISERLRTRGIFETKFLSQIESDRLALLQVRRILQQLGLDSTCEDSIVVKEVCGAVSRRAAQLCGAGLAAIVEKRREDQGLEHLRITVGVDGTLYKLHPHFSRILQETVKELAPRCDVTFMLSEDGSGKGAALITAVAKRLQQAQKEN
The test can be described thus: inhibition of HKDC1 glucose phosphorylation – biochemical, W721R variant, dose response (AID 504729). It counts as functional.

For test [13], the target named is Heat shock protein HSP 90-alpha (Homo sapiens, UniProt P07900). Format: functional, organism-based.

Regarding `COc1ccc(C(=O)NC(=S)NNC(=O)c2ccc(NC(C)=O)cc2)cc1Br`, in [1], the EC50 was > 100 µM (active). In addition, the results for the IC50 in [2], in [3] and in test [4] were > 20 µM (inactive), 18.1 µM (active) and 18.3 µM (active), respectively.

Turning to `CCOc1ccc(/C=C(/NC(=O)c2ccc(C)cc2)C(=O)NCCO)cc1`, the EC50 in test [5] is 13.2 µM (active).

Regarding `Cc1cc(C(=O)Cn2cncn2)c(C)n1CCc1ccc(F)cc1`, in test [6], the concentration giving a half-maximal response (EC50) was > 50 µM (active). Also, the IC50 in test [7] is > 100 µM (active).

For `Cc1ccc(/N=C/c2cc(Cc3ccccc3Cl)cc([N+](=O)[O-])c2O)c(O)c1`, the half-maximal effective concentration (EC50) is 11.3 µM (active) in test [8] and 1.78 µM (active) in test [9]. Further, the values for the half-inhibitory concentration (IC50) in test [10], in test [11] and in test [12] were 9.13 µM (active), 7.22 µM (active) and 28.5 µM (inactive), respectively. Further, in [13], the AC50 is 1.61 µM (active).

A word on the EC50: it is the concentration needed to bring the measured effect to its halfway point. In general, IC50 refers to the concentration that inhibits the measured activity by half. A word on the AC50: it is the midpoint of the concentration-response curve, whichever way the signal moves.
